# In patent publication US20240238367A1, “COMPOUNDS FOR TREATING CONDITIONS RELATED TO PCSK9 ACTIVITY” (MERCK SHARP & DOHME LLC, priority 2021, published 2024):
# Read-outs that look alike come from different tables or passages of the source.
# B1: Repatha: anti-PCSK9 monoclonal antibody (antibody, chains of the INN, looked up, V domains shown)
# VH: EVQLVQSGAEVKKPGASVKVSCKASGYTLTSYGISWVRQAPGQGLEWMGWVSFYNGNTNYAQKLQGRGTMTTDPSTSTAYMELRSLRSDDTAVYYCARGYGMDVWGQGTTVTVSS
# VL: ESALTQPASVSGSPGQSITISCTGTSSDVGGYNSVSWYQQHPGKAPKLMIYEVSNRPSGVSNRFSGSKSGNTASLTISGLQAEDEADYYCNSYTSTSMVFGGGTKLTVL
# Columns and labels:
# [1] = stability of amorphous salt forms, impurity levels (FIG. 5); type: physicochemical; settings: chloride salt made with HCl acidification step, risk of excess HCl
# [2] = target: T1, free PCSK9 (Homo sapiens, UniProt Q8NBP7); test: single dose study: reduction of free plasma PCSK9 from baseline (target engagement); type: in vivo
# T1 construct: reduction in plasma levels of free PCSK9 protein; from tissue; host or cells: plasma of healthy human volunteers (in vivo, endogenous)
# [3] = Text: (§1) Evaluation of pharmacokinetics, pharmacodynamics (reduction of free PCSK9 from baseline) and safety and tolerability of single doses of the compound of formula (I) were studied in normal healthy male volunteers aged 18-50. […] Additionally, this trial examined the effect of permeation enhancer dose on PK, the effect of food on PK, and the effect of various capsule formulations on PK. The pharmacodynamic endpoint measured in this study was target engagement (% change in free PCSK9).
# (§2) The capsules were over-encapsulated with enteric capsules (HPMC Vcaps® Enteric, Capsugel®, Lonza).
# [4] = single dose study: safety and tolerability
# Text: as §1, §2
# [5] = target: human PCSK9 (Homo sapiens, UniProt Q8NBP7)
# [6] = rats; co-administration with permeation enhancer (Labrasol, sodium caprate)
# [7] = non-human primates; co-administration with permeation enhancer (Labrasol, sodium caprate)
# [8] = rats; subcutaneous dosing plus oral arms; up to/including highest doses administered
# [9] = nonhuman primates; subcutaneous dosing plus oral arms; up to/including highest doses administered
# [10] = once daily for 14 days
# Experimental: (§3) Standard takeaway meals were provided to participants to consume no less than 30 minutes after receiving their once daily dose. In addition to standard safety monitoring, including vital signs, ECG and laboratory safety tests, plasma lipids (total cholesterol, LDL-C, HDL-C and TG) were measured. LDL-C was monitored as part of the safety labs.
# [11] = test system: LDL-C; settings: hard gelatin capsule, 5 mg plus 180 mg sodium caprate, participants taking statins
# [12] = test system: LDL-C; test: multiple dose study: LDL-C reduction in participants on statin background therapy
# Experimental: as §3
# Blood LDL-cholesterol levels were measured using standard clinical laboratory testing procedures predose and on day 3, 7, 14, 15 and 21 after dosing.
# [13] = test system: LDL-C; settings: ODYSSEY, N Engl J Med 2018; cited from earlier work
# [14] = test system: LDL-C; settings: phase 3 lipid trials, N Engl J Med 2020; cited from earlier work
# [15] = test system: LDL-C; settings: FOURIER, N Engl J Med 2017; cited from earlier work
# [16] = Panel A 200 mg no PE (permeation enhancer)
# [17] = Panel B 120 mg with 720 mg Labrasol
# [18] = Panel C 40 mg with 720 mg Na Caprate
# [19] = Panel C 100 mg with 1800 mg Na caprate
# [20] = single oral doses 10 to 300 mg, healthy male volunteers
# T1 sequence (Q8NBP7 153-692): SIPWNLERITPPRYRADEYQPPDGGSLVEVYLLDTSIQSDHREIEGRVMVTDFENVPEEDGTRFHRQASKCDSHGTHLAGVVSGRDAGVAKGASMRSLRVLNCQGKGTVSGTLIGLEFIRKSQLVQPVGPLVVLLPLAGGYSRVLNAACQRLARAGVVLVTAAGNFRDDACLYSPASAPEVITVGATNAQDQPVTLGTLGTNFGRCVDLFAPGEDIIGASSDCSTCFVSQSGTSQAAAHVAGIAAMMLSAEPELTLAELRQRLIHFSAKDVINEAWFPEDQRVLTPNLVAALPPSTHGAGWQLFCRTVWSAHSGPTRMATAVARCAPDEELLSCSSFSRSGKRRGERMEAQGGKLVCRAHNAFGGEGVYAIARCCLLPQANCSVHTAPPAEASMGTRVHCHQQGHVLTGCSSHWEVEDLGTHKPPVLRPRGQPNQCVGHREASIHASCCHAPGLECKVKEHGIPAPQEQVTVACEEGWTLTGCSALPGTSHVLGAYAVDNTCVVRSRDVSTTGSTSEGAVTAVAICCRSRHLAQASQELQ
# T1 sequence (Q8NBP7 31-152 partner limits assumed): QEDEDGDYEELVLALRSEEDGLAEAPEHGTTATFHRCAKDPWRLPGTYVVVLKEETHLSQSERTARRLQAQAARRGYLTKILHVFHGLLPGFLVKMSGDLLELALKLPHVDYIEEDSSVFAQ
# human PCSK9, sequence (Q8NBP7 153-692): as the sequence (Q8NBP7 153-692) above
molecule,measurement,setting,value
COc1ccc(C[C@@H]2NC(=O)[C@H]([C@@H](C)O)NC(=O)[C@@H]3[C@@H]4CCN3C(=O)[C@@H]3Cc5cn(c6ccc(F)cc56)CCCCCCN(Cc5ccc(cc5)CCNC(=O)[C@]5(C)CCCN5C2=O)C(=O)CCC(=O)N[C@@H](C)C(=O)N[C@H](CNC(=O)CCCCC[N+](C)(C)C)C(=O)N[C@@H](Cc2cccc(c2)CNC(=O)CO4)C(=O)N3)cc1 [Compound 3],stability / impurity levels of amorphous salt,[1],demonstrate stability
COc1ccc(C[C@@H]2NC(=O)[C@H]([C@@H](C)O)NC(=O)[C@@H]3[C@@H]4CCN3C(=O)[C@@H]3Cc5cn(c6ccc(F)cc56)CCCCCCN(Cc5ccc(cc5)CCNC(=O)[C@]5(C)CCCN5C2=O)C(=O)CCC(=O)N[C@@H](C)C(=O)N[C@H](CNC(=O)CCCCC[N+](C)(C)C)C(=O)N[C@@H](Cc2cccc(c2)CNC(=O)CO4)C(=O)N3)cc1.[Cl-] [Compound 1],stability / impurity levels of amorphous salt,[1],higher impurity levels
same,GM Maximum Percent Target Reduction From Baseline of Free PCSK9,[2]; Panel A 10 mg single dose,93.32%
same,Posterior Probability of True GM Free PCSK9 Maximum Percent Reduction ≥80%,[2]; Panel A 10 mg single dose,>0.99
same,GM Maximum Percent Target Reduction From Baseline of Free PCSK9,[2]; [16],96.83%
same,Posterior Probability of True GM Free PCSK9 Maximum Percent Reduction ≥80%,[2]; [16],>0.99
same,GM Maximum Percent Target Reduction From Baseline of Free PCSK9,[2]; Panel A 200 mg single dose,99.46%
same,Posterior Probability of True GM Free PCSK9 Maximum Percent Reduction ≥80%,[2]; Panel A 200 mg single dose,>0.99
same,GM Maximum Percent Target Reduction From Baseline of Free PCSK9,[2]; Panel B 35 mg single dose,98.72%
same,Posterior Probability of True GM Free PCSK9 Maximum Percent Reduction ≥80%,[2]; Panel B 35 mg single dose,>0.99
same,GM Maximum Percent Target Reduction From Baseline of Free PCSK9,[2]; [17],99.43%
same,Posterior Probability of True GM Free PCSK9 Maximum Percent Reduction ≥80%,[2]; [17],>0.99
same,GM Maximum Percent Target Reduction From Baseline of Free PCSK9,[2]; Panel B 300 mg single dose,99.68%
same,Posterior Probability of True GM Free PCSK9 Maximum Percent Reduction ≥80%,[2]; Panel B 300 mg single dose,>0.99
same,GM Maximum Percent Target Reduction From Baseline of Free PCSK9,[2]; [18],97.94%
same,Posterior Probability of True GM Free PCSK9 Maximum Percent Reduction ≥80%,[2]; [18],>0.99
same,GM Maximum Percent Target Reduction From Baseline of Free PCSK9,[2]; Panel C 100 mg single dose,99.36%
same,Posterior Probability of True GM Free PCSK9 Maximum Percent Reduction ≥80%,[2]; Panel C 100 mg single dose,>0.99
same,GM Maximum Percent Target Reduction From Baseline of Free PCSK9,[2]; [19],99.18%
same,Posterior Probability of True GM Free PCSK9 Maximum Percent Reduction ≥80%,[2]; [19],>0.99
same,effect of food on plasma exposure,[3]; food consumed 30 minutes after the dose,negligible effect
same,effect of food on plasma exposure,"[3]; food consumed 30 minutes before dosing, compared to fasted",lower plasma exposure
same,PK in the presence of Labrasol versus sodium caprate,[3]; single dose,similar
same,effect of permeation enhancers on absorption (Cmax and AUC0-24),"[3]; single dose, with vs without permeation enhancer",improve absorption
same,plasma exposure versus dose,[3]; single oral doses 10 to 300 mg,dose dependent increase
same,adverse events related to Compound 1 reported by the Investigator,[4]; [20],"abdominal discomfort, diarrhea, dyspepsia, headache, and maculopapular rash"
same,deaths or severe adverse events (SAEs),[4]; [20],no death or severe adverse events
same,tolerability,"[4]; single oral doses up to 300 mg, healthy male volunteers",well tolerated
same,severity of treatment-related AEs,"[4]; single oral doses, exception of one participant with severe back pain, not dose-related",mild/moderate
same,binding affinity against human PCSK9,[5],picomolar
same,GI absorption,[6],improved
same,GI absorption,[7],improved
same,adverse effects in GLP toxicity study,[8],no adverse effects were observed
same,adverse effects in GLP toxicity study,[9],no adverse effects were observed
same,PK of 10 mg plus 180 mg sodium caprate versus 10 mg plus 360 mg sodium caprate,[10],similar
same,% LDL-C reduction from baseline,[11],< 50%
same,mean reduction of LDL-C,"[12]; 10 mg plus 180 mg sodium caprate, once daily for 14 days, statin background",approximately 60%
same,mean reduction of LDL-C,"[12]; 10 mg plus 360 mg sodium caprate, once daily for 14 days, statin background",approximately 64%
same,mean reduction of plasma LDL-C,"[12]; 20 mg plus 360 mg sodium caprate, once daily for 14 days, statin background",approximately 62%
COc1ccc(C[C@@H]2NC(=O)[C@H]([C@@H](C)O)NC(=O)[C@@H]3[C@@H]4CCN3C(=O)[C@@H]3Cc5cn(c6ccc(F)cc56)CCCCCCN(Cc5ccc(cc5)CCNC(=O)[C@]5(C)CCCN5C2=O)C(=O)CCC(=O)N[C@@H](C)C(=O)N[C@H](CNC(=O)CCCCC[N+](C)(C)C)C(=O)N[C@@H](Cc2cccc(c2)CNC(=O)CO4)C(=O)N3)cc1 [compound of formula (I)],mean maximum reduction of free plasma PCSK9 levels from baseline,"[2]; single doses, all dose levels studied",more than 90%
same,tolerability,[4]; single and multiple oral doses in healthy volunteers,generally well tolerated
same,lowering of LDL-cholesterol in the blood from baseline,"[12]; 14 days of once daily oral dosing, background of moderate-to-high intensity statin therapy",approximately 65%
Praluent: anti-PCSK9 monoclonal antibody,reduction in LDL-C,[13],59%
Inclisiran,reduction in LDL-C,[14],49-52%
B1,reduction in LDL-C,[15],59%
